In patent publication US9415107B2, “Compositions and methods for the treatment of addiction and other neuropsychiatric disorders” (priority 2005, dated 2016):
“Also recorded” adds a separate entry of the source.

Columns and labels:
[1] = tested on: adult male Wistar rats; experiment: Intravenous cocaine self-administration under a multiple, alternating schedule of food reinforcement and cocaine self-administration; type: in vivo, rat; conditions: for cocaine self-administration (number of infusions): ip pretreatment; for cocaine self-administration: pretreatment with the drug alone, general statement
Method: Adult male Wistar rats were trained under a multiple, alternating schedule of cocaine and food self-administration. This schedule consisted of alternating periods of cocaine access and food reinforcement. In some instances, as described further below, three doses of cocaine (0.125, 0.25, or 0.50 mg/kg/infusion) were tested. Rats were also periodically trained with saline substitution (cocaine extinction) and food extinction during the same session.
More specifically, adult male Wistar rats were implanted with chronic jugular catheters. Following recovery from surgery, the rats were trained to respond under a multiple, alternating schedule of food reinforcement and cocaine self-administration. Food-maintained responding was used to control for the non-specific motor effects of the various treatments. During the food component of the schedule, the stimulus light located above the food response lever was illuminated to indicate the availability of food reinforcement. […] A 25-second timeout followed the delivery of each food pellet. During this timeout, the stimulus light was darkened and responses on the food lever were counted but had no scheduled consequences. Responding on the other (cocaine) lever during the food component also had no scheduled consequences. […] Following 15 minutes of access to food, all stimulus lights in the chamber were darkened for a 1-minute timeout. Following the timeout, the stimulus light above the cocaine response lever was illuminated to indicate the availability of cocaine (0.125, 0.25, or 0.5 mg/kg/infusion). […] A 20-second timeout period followed each infusion. […] After 15 minutes of access to cocaine and a 1-minute timeout, the rats were again allowed 15 minutes access to the food component of the schedule. Access to food and cocaine alternated in this manner every 15 minutes during the two hour behavioral sessions so that each rat was exposed to food and cocaine for four 15-minute periods each. Each behavioral session began with 15 minutes access to either food or cocaine, and this alternated daily. Stable baselines of responding were established when the total number of cocaine and food presentations, as well as the number of presentations during each of the four exposures each session, varied less than 10% for three consecutive sessions. At least three different doses of cocaine (e.g., 0.125, 0.25, and 0.5 mg/kg/infusion) were tested. Rats were first trained to self-administer 0.25 mg/kg/infusion, our standard dose of cocaine. When responding stabilized, the dose was changed to 0.125 or 0.5 mg/kg/infusion as appropriate.
Once stable baselines of responding were obtained, dose-response curves for the various compounds were individually generated for each rat. Rats were treated with each dose at least twice with a minimum of two days of baseline cocaine self-administration interspersed between each test. Each group of rats was tested with only two of the test compounds to minimize potential carryover effects. […] This rationale guided the selection of the doses of each of the compounds in the combination studies. Each experimental group consisted of between 8 and 10 rats.

[2] = tested on: adult male Wistar rats; experiment: Cue-induced reinstatement of extinguished cocaine seeking (model of relapse); type: in vivo, rat; conditions: for reinstatement of extinguished cocaine seeking: pretreatment with the drug alone, general statement
Text: In our model, rats were exposed to alternating 15-minute periods of access to cocaine self-administration and food reinforcement. Food was used to control for potential nonspecific, ataxis effects of the drugs and combinations. […] The other preclinical model we used is the cue-induced reinstatement of extinguished cocaine seeking model of relapse. In this model, rats are trained to self-administer cocaine and the ability of conditioned cues in the environment to reinstate extinguished responding is assessed and taken as a measure of relapse.
The experiments described herein were designed to investigate whether or not drug combinations identified as effective in reducing cocaine self-administration would also block the ability of conditioned cues to reinstate extinguished cocaine-seeking behavior. Adult male Wistar rats were implanted with chronic jugular catheters and trained to self-administer cocaine (0.25 mg/kg/infusion) by pressing one of the response levers in the experimental chamber (i.e., the “active” or “cocaine” lever) under a fixed-ratio four (FR4) schedule of reinforcement during daily 2-hour sessions conducted 5 days per week. At the start of each session, both levers were extended into the chamber and the stimulus light above the active lever was illuminated to indicate the availability of cocaine. […] A 20-second timeout period followed each infusion. The stimulus light above the active lever and the house light and tone compound stimulus were extinguished during the timeout period, and the light above the active lever was illuminated once the timeout ended. When responding on the active lever varied less than 20% for two consecutive days, the response requirement was increased to FR2. When similar stability was observed under the FR2 schedule or reinforcement, the response requirement was increased to the final ratio of four. The criteria for stable responding under the FR4 schedule of reinforcement was a minimum of 10 days of exposure to this schedule that concluded with at least three consecutive days when responding varied by less than 10%. […] Once stable cocaine self-administration was observed, rats were exposed to extinction; the rats were placed into the behavioral chambers, but responding on the “cocaine” (active) lever produced no programmed consequences. Extinction training continued until responding decreased to less than 20% of baseline self-administration. Then reinstatement testing commended. The rats were placed into the experimental chambers, both response levers were extended into the chamber, and the stimulus light above the “active” lever was illuminated as during self-administration training. […] Responding on the “active” lever during reinstatement testing was taken as an index of cocaine-seeking behavior. Each experimental group consisted of 8 to 10 rats.

[3] = Pharmacokinetic interaction between cocaine, metyrapone and oxazepam (plasma concentrations by GCMS); conditions: presence of iv cocaine
Method: Adult male Wistar rats (90 to 120 days old) were implanted with chronic, indwelling jugular catheters and were allowed to recover from surgery. […] Thirty minutes following the drug combination or vehicle injection, the rats received intravenous injections of cocaine (0.25 mg/kg/infusion) every 2 minutes for 1 hour. After the final injection of cocaine, blood was collected from the catheter for the analysis of cocaine and its metabolites ecgonine methyl ester and benzoylecgonine. […] All drug concentrations were determined using GCMS procedures.

[4] = tested on: male Wistar rats; experiment: Forced Swim Test (FST), animal model of depression
[5] = tested on: plasma corticosterone; experiment: Plasma corticosterone after metyrapone pretreatment; conditions: pretreatment with metyrapone
[6] = low, ineffective dose of the drug alone

CCCCN(CC)c1nc(C)nc2c1c(C)cn2-c1c(C)cc(C)cc1C [CP-154,526]
cocaine self-administration (number of infusions) ([1]; high dose of the drug alone): reduced cocaine self-administration | cocaine self-administration (number of infusions) [1, 6]: did not significantly affect cocaine self-administration | cocaine self-administration [1]: decrease | reinstatement of extinguished cocaine seeking [2]: decrease

Cc1nnc2n1-c1ccc(Cl)cc1C(c1ccccc1)=NC2 [alprazolam]
cocaine self-administration (number of infusions) ([1]; high dose of the drug alone): reduced cocaine self-administration | cocaine self-administration (number of infusions) [1, 6]: did not significantly affect cocaine self-administration | cocaine self-administration [1]: decrease | reinstatement of extinguished cocaine seeking [2]: decrease

COC(=O)[C@H]1[C@@H](OC(=O)c2ccccc2)C[C@@H]2CC[C@H]1N2C [cocaine]
effect on plasma concentrations of metyrapone or oxazepam [3]: did not affect

CC(=O)N1CCN(c2ccc(OCC3COC(Cn4ccnc4)(c4ccc(Cl)cc4Cl)O3)cc2)CC1 (centres unmarked) [ketoconazole]
minimally effective dose that reduced cocaine self-administration by at least 50% without affecting food-maintained responding ([1]; drug alone): 25 mg/kg | cocaine self-administration (number of infusions) [1, 6]: no effect; also recorded: did not significantly affect cocaine self-administration | cocaine self-administration [1]: decrease | reinstatement of extinguished cocaine seeking [2]: decrease

CC(C)(C(=O)c1cccnc1)c1cccnc1 [metyrapone]
immobility time in the FST ([4]; chronic administration, Met50 group (metyrapone 50 mg/kg alone)): showed a lessening of immobility time | mean immobility time relative to vehicle (tolerance) ([4]; chronically treated groups that received only Ox or Met): equal to or exceeded the vehicle | cocaine self-administration (number of infusions) ([1]; high dose of the drug alone): reduced cocaine self-administration | cocaine self-administration (number of infusions) [1, 6]: did not significantly affect cocaine self-administration; also recorded: no longer affected cocaine self-administration | cocaine self-administration [1]: decrease; also recorded: significant dose-related decreases | plasma corticosterone [5]: significant dose-related decreases | cocaine seeking (responding on the active lever during reinstatement) ([2]; chronic metyrapone 50 mg/kg, ip, once per day for 14 days): reduced cocaine seeking to levels seen when only saline was delivered | reinstatement of extinguished cocaine seeking [2]: decrease

NCc1cc(=O)[nH]o1 [muscimol]
cocaine self-administration (number of infusions) ([1]; high dose of the drug alone): reduced cocaine self-administration | cocaine self-administration (number of infusions) [1, 6]: did not significantly affect cocaine self-administration
